According to paper PMC5889410, “Design and Biological Evaluation of Antifouling Dihydrostilbene Oxime Hybrids” (Marine Biotechnology (New York, N.y.), 2018):
≈ marks a conversion by molar mass, not a printed value.

Key:
[1] = test system: Balanus improvisus cyprid larvae; conditions: cited from earlier work
Halamphora coffeaeformis [2] = test: Microalgal growth assay (chlorophyll a); assay type: cell-based; conditions: Halamphora coffeiformis, 120 h, 5 days incubation, 10–0.01 μg/mL tested, read-out: MIC against the growth (G) of microalgae, H. coffeaformis
Excerpt: (§1) Cyprid larvae of B. improvisus were reared in a laboratory cultivating system at Tjärnö Marine Biological Laboratory, University of Gothenburg, Sweden, as previously described by Berntsson et al. ([2000]). Four pure, but non-axenic, marine microalgae (obtained from Algobank, Caen, France) and 10 marine bacterial strains were used (Table 1) as representative microfoulers. These strains represent fouling species encountered in both estuarine and marine environments (Moodie et al. [2017b]). The bacteria were grown at 26 °C in a marine medium, composed of 0.5% peptone (neutralized bacteriological peptone, Oxoid Ltd.) in filtered (Whatman 1001–270, pore size 11 μm) natural seawater. Microalgae were grown and maintained at 22 °C in F/2 medium.
(§2) Microplates containing the compounds in ranging concentrations (10–0.01 μg/mL) were prepared from MeOH stock solutions as previously described (Trepos et al. [2014]; Moodie et al. [2017a]). Microalgal stock solutions were prepared using the chlorophyll analysis methodology of Chambers et al. ([2011]). The pretreated microplate wells were treated with 100 μL of the algal stock solutions (0.1 mg chlorophyll a/mL). The plates were then incubated for 5 days at 20 °C under constant light exposure (140 μmol m^−2 s^−1). Both microalgal adhesion and growth inhibition were measured. Growth was determined by analysis of liberated chlorophyll a after centrifugation and methanol addition. Chlorophyll a was quantified fluorometrically. MIC value for algal growth was defined as the lowest concentration yielding a decrease in chlorophyll a content. Microalgal adhesion was determined in an analogous manner where the non-attached algal cells were removed prior to methanol addition (100 μL), releasing chlorophyll a from the remaining algal biofilms. The MIC for adhesion was defined as the lowest compound concentration causing a reduction in […]. Toxicity experiments were performed in an analogous manner to those described for the bacterial assays.

Porphyridium purpureum [3] = test: Microalgal growth assay (chlorophyll a); assay type: cell-based; conditions: 120 h, 5 days incubation, 10–0.01 μg/mL tested, read-out: MIC against the growth (G) of microalgae, P. purpureum
Excerpt: as §1, §2

[4] = test system: Pleurochrysis roscoffensis; test: Microalgal growth assay (chlorophyll a); assay type: cell-based; conditions: Chrysotila roscoffensis, 120 h, 5 days incubation, 10–0.01 μg/mL tested, read-out: MIC against the growth (G) of microalgae, P. roscoffensis
Excerpt: as §1, §2

Cylindrotheca closterium = test: Microalgal growth assay (chlorophyll a); assay type: cell-based; conditions: 120 h, 5 days incubation, 10–0.01 μg/mL tested, read-out: MIC against the growth (G) of microalgae, C. closterium
Excerpt: as §1, §2

Halamphora coffeaeformis [5] = test: Microalgal adhesion assay (chlorophyll a); assay type: cell-based; conditions: Halamphora coffeiformis, 120 h, 5 days incubation, 10–0.01 μg/mL tested, read-out: MIC against the adhesion (A) of microalgae, H. coffeaformis
Excerpt: as §1, §2

Porphyridium purpureum [6] = test: Microalgal adhesion assay (chlorophyll a); assay type: cell-based; conditions: 120 h, 5 days incubation, 10–0.01 μg/mL tested, read-out: MIC against the adhesion (A) of microalgae, P. purpureum
Excerpt: as §1, §2

[7] = test system: Balanus improvisus cyprid larvae; test: whole plant or invertebrate; assay type: in vivo; conditions: for IC50: Amphibalanus improvisus, 120 h, read-out: IC50 (cyprid settlement inhibition); for Toxicity (%) (dead cyprids): Balanus improvisus, in vivo, 5 days, 5 μg/mL
Excerpt: as §1
Stock solutions of compounds in DMSO were serially diluted in untreated polystyrene Petri dishes containing 10 mL of filtered (0.2 μm) seawater, affording final concentrations ranging from 0.1 to 10 μg/mL. Freshly molted balanide cyprids (18–22) were added to each Petri dish and incubated at ambient temperature (20–25 °C) for 5 days. Cyprid metamorphosis was assessed using a dissecting microscope where the numbers of juvenile settled, free-swimming, and dead cyprids were noted. Initial compound screening was conducted at 5 μg/mL, and full IC50 determination was performed only on compounds displaying > 50% inhibition at that concentration. The IC50 was defined as the concentration preventing 50% of the cyprid settlement on the Petri dish surface. Each concentration was replicated four times (n = 4), and dishes containing 0.1% of DMSO were used as negative controls. The commercial AF agent Sea-nine™ was employed as a positive control.

Vibrio carchariae = test: Bacterial growth assay (OD 630 nm); assay type: cell-based; conditions: Vibrio harveyi, 48 h incubation, 10–0.01 μg/mL tested, read-out: MIC against the growth of marine bacteria, V.c.
Excerpt: as §1
(§3) Bacterial strain adhesion and growth were determined according to the methods of Thabard et al. ([2011]). Bacterial suspensions (100-μL aliquots, 2 × 10^8 colony forming units/mL) were aseptically added to the compound containing microplate wells (10–0.01 μg/mL), and the plates were incubated for 48 h at 26 °C. Media only was used as a blank. Bacterial growth was monitored spectroscopically at 630 nm. The minimal inhibitory concentration (MIC) for bacterial growth was defined as the lowest concentration which results in a decrease in OD. After 48-h incubation time, the bacterial adhesion assay was conducted by emptying the wells and rinsing with sterile seawater (100 μL) to remove non-attached cells, and air-drying at room temperature. The residual bacterial biofilm was stained with aqueous crystal violet (100 μL, 0.3% v/v) and the OD measured at 595 nm (Sonak and Bhosle [1995]). […] If inhibition was observed, toxicity tests were conducted. The well contents were transferred into a flask of fresh media, and growth was measured after 5 days of additional incubation. The mode of action was deemed biostatic if an increase in OD was measured at 595 nm (Moodie et al. [2017a]).

Roseobacter litoralis = test: Bacterial growth assay (OD 630 nm); assay type: cell-based; conditions: 48 h incubation, 10–0.01 μg/mL tested, read-out: MIC against the growth of marine bacteria, R.l.
Excerpt: as §1, §3

[8] = test system: Pseudoalteromonas elyakovii; test: Bacterial growth assay (OD 630 nm); assay type: cell-based; conditions: 48 h incubation, 10–0.01 μg/mL tested, read-out: MIC against the growth of marine bacteria, P.e.
Excerpt: as §1, §3

Vibrio harveyi = test: Bacterial growth assay (OD 630 nm); assay type: cell-based; conditions: 48 h incubation, 10–0.01 μg/mL tested, read-out: MIC against the growth of marine bacteria, V.h.
Excerpt: as §1, §3

Vibrio aestuarianus [9] = test: Bacterial growth assay (OD 630 nm); assay type: cell-based; conditions: 48 h incubation, 10–0.01 μg/mL tested, read-out: MIC against the growth of marine bacteria, V.a.
Excerpt: as §1, §3

Vibrio natriegens = test: Bacterial growth assay (OD 630 nm); assay type: cell-based; conditions: 48 h incubation, 10–0.01 μg/mL tested, read-out: MIC against the growth of marine bacteria, V.n.
Excerpt: as §1, §3

Shewanella putrefaciens = test: Bacterial growth assay (OD 630 nm); assay type: cell-based; conditions: 48 h incubation, 10–0.01 μg/mL tested, read-out: MIC against the growth of marine bacteria, S.p.
Excerpt: as §1, §3

Vibrio proteolyticus = test: Bacterial growth assay (OD 630 nm); assay type: cell-based; conditions: 48 h incubation, 10–0.01 μg/mL tested, read-out: MIC against the growth of marine bacteria, V.p.
Excerpt: as §1, §3

Halomonas aquamarina = test: Bacterial growth assay (OD 630 nm); assay type: cell-based; conditions: Vreelandella aquamarina, 48 h incubation, 10–0.01 μg/mL tested, read-out: MIC against the growth of marine bacteria, H.a.
Excerpt: as §1, §3

microalgae = test: Microalgal adhesion and growth, whole panel of four species; assay type: cell-based, four marine microalgae; conditions: 10–0.01 μg/mL tested
Excerpt: as §1, §2

marine bacteria [10] = test: Bacterial growth assay, whole panel of ten strains; assay type: cell-based, 10 marine bacterial strains; conditions: tested up to 10 μg/mL
Excerpt: as §1, §3

marine bacteria [11] = test: Bacterial adhesion assay, whole panel of ten strains; assay type: cell-based, 10 marine bacterial strains; conditions: tested up to 10 μg/mL, active = MIC of 10 μg/mL or below
Excerpt: as §1, §3

[12] = test system: Pleurochrysis roscoffensis; test: Microalgal adhesion assay (chlorophyll a); assay type: cell-based; conditions: Chrysotila roscoffensis, 120 h, 5 days incubation, 10–0.01 μg/mL tested, read-out: MIC against the adhesion (A) of microalgae, P. roscoffensis
Excerpt: as §1, §2

Vibrio aestuarianus [13] = test: Bacterial adhesion assay (crystal violet, OD 595 nm); assay type: cell-based; conditions: 48 h, read-out: MIC against the adhesion of marine bacteria, V.a.
Excerpt: as §1, §3

Row | SMILES | MIC (Halamphora coffeaeformis [2]) [µg/mL] | MIC (Porphyridium purpureum [3]) [µg/mL] | MIC [4] [µg/mL] | MIC (Cylindrotheca closterium) [µg/mL] | IC50 [7] [µg/mL] | Toxicity (%) (dead cyprids) [7] | MIC (Vibrio carchariae) [µg/mL] | MIC (Roseobacter litoralis) [µg/mL] | MIC [8] [µg/mL] | MIC (Vibrio harveyi) [µg/mL] | MIC (Vibrio aestuarianus [9]) [µg/mL] | MIC (Vibrio natriegens) [µg/mL] | MIC (Shewanella putrefaciens) [µg/mL] | MIC (Vibrio proteolyticus) [µg/mL] | MIC (Halomonas aquamarina) [µg/mL] | MIC / activity against the adhesion of all bacteria tested (marine bacteria [11]) | MIC [12] [µg/mL] | other results
1 | COc1cc(O)cc(CCc2cccc(O)c2)c1 [Compound 1, batatasin-III] |  |  |  |  |  |  |  |  |  |  |  |  |  |  |  |  |  | IC50 (cyprid settlement inhibition) ([1]; B. improvisus, ref Moodie et al. ([2017b])): 1.0 µg/mL (≈ 4.09 µM)
2 | N[C@@H](Cc1ccc(O)cc1)C(=O)NCCc1ccc(O)cc1 [Compound 5, L-Tyrosinyltyramine] |  |  |  |  |  |  |  |  |  |  |  |  |  |  |  |  |  | activity against larvae settlement ([1]; B. improvisus larvae settlement, ref Ortlepp et al. [2007]): inactive
3 | COc1ccc(C(Cc2ccccc2)=NO)cc1OC [Compound 7, 1-(3,4-dimethoxyphenyl)-1-hydroxyimino-2-phenylethane] | 0.1 (≈ 0.369 µM) | 10 (≈ 36.9 µM) | 0.01 (≈ 0.0369 µM) | 1 (≈ 3.69 µM) | 2.5 (≈ 9.21 µM) | 5.8 | 10 (≈ 36.9 µM) | > 10 | > 10 | 1 (≈ 3.69 µM) | 10 (≈ 36.9 µM) | > 10 | > 10 | > 10 | > 10 |  |  | MIC (Halamphora coffeaeformis [5]): 0.01 µg/mL (≈ 0.0369 µM); MIC (Porphyridium purpureum [6]): 1 µg/mL (≈ 3.69 µM); MIC / activity against the attachment and growth of microalgae (microalgae): inhibited both the settlement and growth of all of the tested species; MIC / activity against the growth of all bacteria tested (marine bacteria [10]): modest activity
4 | COc1ccc(C(Cc2ccc(O)cc2)=NO)cc1OC [Compound 8, 1-(3,4-dimethoxyphenyl)-1-hydroxyimino-2-(4’-hydroxyphenyl)-ethane] | 10 (≈ 34.8 µM) | > 10 | 10 (≈ 34.8 µM) | 10 (≈ 34.8 µM) | 5 (≈ 17.4 µM) | 0.0 | > 10 | > 10 | > 10 | > 10 | > 10 | > 10 | 1 (≈ 3.48 µM) | > 10 | 10 (≈ 34.8 µM) | ^aCompounds 7, 8, 10, 11, and 12 were inactive against the adhesion of all bacteria tested up to 10 μg/mL |  | 
5 | COc1ccc(CC(=NO)c2ccc(OC)c(OC)c2)cc1 [Compound 9, 1-(3,4-dimethoxyphenyl)-1-hydroxyimino-2-(4’-methoxyphenyl)-ethane] | 10 (≈ 33.2 µM) | > 10 | > 10 | 10 (≈ 33.2 µM) | 1.5 (≈ 4.98 µM) | 0.0 | > 10 | > 10 | > 10 | > 10 | > 10 | > 10 | 0.1 (≈ 0.332 µM) | > 10 | 10 (≈ 33.2 µM) | displayed inhibitory activities | 10 (≈ 33.2 µM) | 
6 | COc1ccc(CC(=NO)c2ccc(O)c(O)c2)cc1 [Compound 10, 1-(3,4-Dihydroxyphenyl)-1-Hydroxyimino-2-(4′-Methoxyphenyl)-Ethane] | 1 (≈ 3.66 µM) | > 10 | 1 (≈ 3.66 µM) | 10 (≈ 36.6 µM) | 5 (≈ 18.3 µM) | 2.6 | > 10 | > 10 | 1 (≈ 3.66 µM) | > 10 | > 10 | 10 (≈ 36.6 µM) | > 10 | > 10 | > 10 | ^aCompounds 7, 8, 10, 11, and 12 were inactive against the adhesion of all bacteria tested up to 10 μg/mL | 0.1 (≈ 0.366 µM) | 
7 | COc1cc(C(Cc2ccc(O)cc2)=NO)ccc1O [Compound 12, 1-(3-methoxy-4-hydroxyphenyl)-1-hydroxyimino-2-(4’-hydroxyphenyl)-ethane] | 10 (≈ 36.6 µM) | > 10 | 10 (≈ 36.6 µM) | > 10 | 2.5 (≈ 9.15 µM) | 3.5 | > 10 | 1 (≈ 3.66 µM) | 10 (≈ 36.6 µM) | > 10 | > 10 | > 10 | 0.1 (≈ 0.366 µM) | > 10 | 0.1 (≈ 0.366 µM) |  |  | MIC / activity against the growth of all bacteria tested (marine bacteria [10]): active against four strains
8 | COc1cc(C(Cc2cccc(O)c2)=NO)ccc1O [Compound 13, 1-(3-methoxy-4-hydroxyphenyl)-1-hydroxyimino-2-(3’-hydroxyphenyl)-ethane] | 0.1 (≈ 0.366 µM) | 1 (≈ 3.66 µM) | 0.1 (≈ 0.366 µM) | 1 (≈ 3.66 µM) | 5 (≈ 18.3 µM) | 1.6 | > 10 | > 10 | > 10 | > 10 | > 10 | 1 (≈ 3.66 µM) | > 10 | > 10 | > 10 | displayed inhibitory activities | 1 (≈ 3.66 µM) | MIC (Vibrio aestuarianus [13]): 0.1 µg/mL (≈ 0.366 µM); MIC (Halamphora coffeaeformis [5]): 0.01 µg/mL (≈ 0.0366 µM); MIC (Porphyridium purpureum [6]): 10 µg/mL (≈ 36.6 µM); MIC / activity against the attachment and growth of microalgae (microalgae): inhibited both the settlement and growth of all of the tested species
